Literature values in patent US20060189586A1, “Pharmaceutical compositions comprising active vitamin D compounds” (priority 2003, published 2006).

Details: in vivo

Row | Hypercalcemic effect compared to calcitriol | Compound
1 | reduced hypercalcemic effect | C=C1/C(=C\C=C2/CCC[C@]3(C)C([C@H](C)CC#CC(C)(C)O)=CC[C@@H]23)C[C@@H](O)C[C@@H]1O [Ro23-7553]
2 | reduced hypercalcemic effect | C=C1/C(=C/C=C2\CCC[C@]3(C)C([C@H](C)CC#CC(O)(C(F)(F)F)C(F)(F)F)=CC[C@@H]23)C[C@@H](O)C[C@@H]1O [Ro24-5531]
